Biological target: human APJ receptor (Homo sapiens (Human), UniProt P35414)
Assay: [35S]GTPγS binding assay on membranes from CHO cells stably expressing human APJ receptor
Type: biochemical
Conditions: read-out: Activity hAPJ SPA EC50 IP
Method in brief: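 Agonist-driven [35S]GTPγS (0.2 nM) binding was measured over 90 min at room temperature on human APJ-expressing CHO membranes with bead capture, in buffer containing 3 μM GDP, 200 mM NaCl and 5 mM MgCl2 (pH 7.5). Excess unlabelled GTPγS (100 μM) gave nonspecific signal; EC50 from non-linear fits.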

Sequence of human APJ receptor (P35414 whole entry): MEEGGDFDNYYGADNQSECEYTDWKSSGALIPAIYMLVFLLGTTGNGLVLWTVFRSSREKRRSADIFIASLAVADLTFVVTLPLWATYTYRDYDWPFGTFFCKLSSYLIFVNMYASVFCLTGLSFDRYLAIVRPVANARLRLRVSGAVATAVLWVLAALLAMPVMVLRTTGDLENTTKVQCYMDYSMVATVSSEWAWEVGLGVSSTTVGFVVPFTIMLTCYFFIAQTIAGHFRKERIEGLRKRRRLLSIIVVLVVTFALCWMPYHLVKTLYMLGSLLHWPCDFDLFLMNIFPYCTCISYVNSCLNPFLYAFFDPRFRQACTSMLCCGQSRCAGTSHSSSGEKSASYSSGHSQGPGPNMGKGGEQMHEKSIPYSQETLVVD

Question: For `COc1cccc(OC)c1-n1c(NS(=O)(=O)[C@@H](C)[C@H](C)c2ncc(Cl)cn2)nnc1[C@H]1CCC(=O)N1C` (single isomer, unassigned) [Example 419.0, (2S,3R)-3-(5-chloro-2-pyrimidinyl)-N-(4-(2,6-dimethoxyphenyl)-5-((2R)-1-methyl-5-oxo-2-pyrrolidinyl)-4H-1,2,4-triazol-3-yl)-2-butanesulfonamide or ((2S,3R)-3-(5-chloro-2-pyrimidinyl)-N-(4-(2,6-dimethoxyphenyl)-5-((2S)-1-methyl-5-oxo-2-pyrrolidinyl)-4H-1,2,4-triazol-3-yl)-2-butanesulfonamide], which EC50 is on record?
Answer: The EC50 was 3430 nM.

Question: For `COc1cccc(OC)c1-n1c(NS(=O)(=O)CCc2ncc(Cl)cn2)nnc1[C@@H]1COCCO1` (single isomer, unassigned) [Example 424.0, 2-(5-chloro-2-pyrimidinyl)-N-(4-(2,6-dimethoxyphenyl)-5-((2R)-1,4-dioxan-2-yl)-4H-1,2,4-triazol-3-yl)ethanesulfonamide or 2-(5-chloro-2-pyrimidinyl)-N-(4-(2,6-dimethoxyphenyl)-5-((2S)-1,4-dioxan-2-yl)-4H-1,2,4-triazol-3-yl)ethanesulfonamide], which EC50 is on record?
Answer: Its EC50 is 52 nM.

Question: With `COc1cccc(OC)c1-n1c(NS(=O)(=O)CCc2ncc(Cl)cn2)nnc1[C@@H]1COCCO1` (single isomer, unassigned) [Example 425.0, 2-(5-chloro-2-pyrimidinyl)-N-(4-(2,6-dimethoxyphenyl)-5-((2R)-1,4-dioxan-2-yl)-4H-1,2,4-triazol-3-yl)ethanesulfonamide or 2-(5-chloro-2-pyrimidinyl)-N-(4-(2,6-dimethoxyphenyl)-5-((2S)-1,4-dioxan-2-yl)-4H-1,2,4-triazol-3-yl)ethanesulfonamide] as the compound, how does the EC50 read?
Answer: Its EC50 is 130 nM.

Question: `COc1cccc(OC)c1-n1c(NS(=O)(=O)[C@@H](C)[C@H](C)c2ncc(Cl)cn2)nnc1[C@H]1CCO1` (single isomer, unassigned) [Example 445.0, (2S,3R)-3-(5-chloropyrimidin-2-yl)-N-(4-(2,6-dimethoxyphenyl)-5-((R)-oxetan-2-yl)-4H-1,2,4-triazol-3-yl)butane-2-sulfonamide or (2S,3R)-3-(5-chloropyrimidin-2-yl)-N-(4-(2,6-dimethoxyphenyl)-5-((S)-oxetan-2-yl)-4H-1,2,4-triazol-3-yl)butane-2-sulfonamide] was tested. Which EC50 did it give?
Answer: The EC50 was 30 nM.

Question: Which EC50 does the source give for `COc1cccc(OC)c1-n1c(NS(=O)(=O)[C@@H](C)[C@H](C)c2ncc(Cl)cn2)nnc1[C@@H]1CCN(C(=O)OC(C)(C)C)C1` (stereo in doubt) [Example 41.0, tert-butyl (3R)-3-(5-((((1S,2R)-2-(5-chloro-2-pyrimidinyl)-1-methylpropyl)sulfonyl)amino)-4-(2,6-dimethoxyphenyl)-4H-1,2,4-triazol-3-yl)-1-pyrrolidinecarboxylate or tert-butyl (3S)-3-(5-((((1S,2R)-2-(5-chloro-2-pyrimidinyl)-1-methylpropyl)sulfonyl)amino)-4-(2,6-dimethoxyphenyl)-4H-1,2,4-triazol-3-yl)-1-pyrrolidinecarboxylate] here?
Answer: The EC50 was 820 nM.

Question: For `COc1cccc(OC)c1-n1c(NS(=O)(=O)[C@@H](C)[C@H](C)c2ncc(Cl)cn2)nnc1[C@H]1CCN(C(=O)OC(C)(C)C)C1` (stereo in doubt) [Example 42.0, tert-butyl (3S)-3-(5-((((1S,2R)-2-(5-chloro-2-pyrimidinyl)-1-methylpropypsulfonyl)amino)-4-(2,6-dimethoxyphenyl)-4H-1,2,4-triazol-3-yl)-1-pyrrolidinecarboxylate or tert-butyl (3R)-3-(5-((((1S,2R)-2-(5-chloro-2-pyrimidinyl)-1-methylpropypsulfonyl)amino)-4-(2,6-dimethoxyphenyl)-4H-1,2,4-triazol-3-yl)-1-pyrrolidinecarboxylate], which EC50 is on record?
Answer: The EC50 was 210 nM.

Question: `COc1cccc(OC)c1-n1c(NS(=O)(=O)[C@H](C)Cc2ncc(F)cn2)nnc1[C@H]1CCOC1` [Example 6.0] was tested. Which EC50 did it give?
Answer: The EC50 was 400 nM.

Question: For `Cc1cnc([C@@H](C)[C@H](C)S(=O)(=O)Nc2nnc([C@@H]3CCCO3)n2-c2c(F)cccc2F)nc1` [Example 18.0, (2S,3R)-N-(4-(2,6-difluorophenyl)-5-((2S)-tetrahydro-2-furanyl)-4H-1,2,4-triazol-3-yl)-3-(5-methyl-2-pyrimidinyl)-2-butanesulfonamide], which EC50 is on record?
Answer: The EC50 was 120 nM.

Question: With `Cc1cnc([C@@H](C)[C@H](C)S(=O)(=O)Nc2nnc([C@H]3CCCO3)n2-c2c(F)cccc2F)nc1` [Example 19.0, (2S,3R)-N-(4-(2,6-difluorophenyl)-5-((2R)-tetrahydro-2-furanyl)-4H-1,2,4-triazol-3-yl)-3-(5-methyl-2-pyrimidinyl)-2-butanesulfonamide] as the compound, how does the EC50 read?
Answer: The EC50 was 60 nM.

Question: How did the EC50 turn out when `Cc1cnc([C@@H](C)[C@H](C)S(=O)(=O)Nc2nnc([C@@H]3CCCO3)n2-c2c(F)cncc2F)nc1` [Example 25.0, (2S,3R)-N-(4-(3,5-difluoro-4-pyridinyl)-5-((2S)-tetrahydro-2-furanyl)-4H-1,2,4-triazol-3-yl)-3-(5-methyl-2-pyrimidinyl)-2-butanesulfonamide] was run?
Answer: The EC50 was 130 nM.

Question: With `Cc1cnc([C@@H](C)[C@H](C)S(=O)(=O)Nc2nnc([C@H]3CCCO3)n2-c2c(F)cncc2F)nc1` [Example 26.0, (2S,3R)-N-(4-(3,5-difluoro-4-pyridinyl)-5-((2R)-tetrahydro-2-furanyl)-4H-1,2,4-triazol-3-yl)-3-(5-methyl-2-pyrimidinyl)-2-butanesulfonamide] as the compound, how does the EC50 read?
Answer: The EC50 was 870 nM.

Question: For `COc1cccc(OC)c1-n1c(NS(=O)(=O)[C@@H](C)[C@H](C)c2ncc(Cl)cn2)nnc1C1COC1` [Example 36.0, (2S,3R)-3-(5-chloro-2-pyrimidinyl)-N-(4-(2,6-dimethoxyphenyl)-5-(3-oxetanyl)-4H-1,2,4-triazol-3-yl)-2-butanesulfonamide], which EC50 is on record?
Answer: The EC50 was 140 nM.

Question: How did the EC50 turn out when `COc1cccc(OC)c1-n1c(NS(=O)(=O)CCc2ccc(F)cc2C#N)nnc1[C@H]1CCC(=O)N1` [Example 43.0, 2-(2-Cyano-4-fluorophenyl)-N-(4-(2,6-dimethoxyphenyl)-5-((2R)-5-oxo-2-pyrrolidinyl)-4H-1,2,4-triazol-3-yl)ethanesulfonamide] was run?
Answer: Its EC50 is 1190 nM.

Question: With `COc1cccc(OC)c1-n1c(NS(=O)(=O)CCc2ccc(F)cc2C#N)nnc1[C@@H]1CCC(=O)N1` [Example 44.0, 2-(2-Cyano-4-fluorophenyl)-N-(4-(2,6-dimethoxyphenyl)-5-((2S)-5-oxo-2-pyrrolidinyl)-4H-1,2,4-triazol-3-yl)ethanesulfonamide] as the compound, how does the EC50 read?
Answer: Its EC50 is 430 nM.

Question: For `COc1cccc(OC)c1-n1c(NS(=O)(=O)[C@@H](C)[C@H](OC)c2ncc(Cl)cn2)nnc1C1CCOCC1` [Example 103.0, (1R,2S)-1-(5-chloropyrimidin-2-yl)-N-(4-(2,6-dimethoxyphenyl)-5-(tetrahydro-2H-pyran-4-yl)-4H-1,2,4-triazol-3-yl)-1-methoxypropane-2-sulfonamide], which EC50 is on record?
Answer: The EC50 was 45 nM.

Question: For `COc1ccccc1-n1c(NS(=O)(=O)[C@@H](C)[C@H](OC)c2ncc(Cl)cn2)nnc1[C@@H]1CCCO1` [Example 240.0, (1R,2S)-1-(5-chloro-2-pyrimidinyl)-1-methoxy-N-(4-(2-methoxyphenyl)-5-((2S)-tetrahydro-2-furany1)-4H-1,2,4-triazol-3-y1)-2-propanesulfonamide], which EC50 is on record?
Answer: The EC50 was 1.3 nM.

Question: With `CCc1ccccc1-n1c(NS(=O)(=O)[C@@H](C)[C@H](OC)c2ncc(Cl)cn2)nnc1[C@@H]1CCCO1` [Example 241.0, (1R,2S)-1-(5-chloro-2-pyrimidinyl)-N-(4-(2-ethylphenyl)-5-((2S)-tetrahydro-2-furanyl)-4H-1,2,4-triazol-3-y1)-1-methoxy-2-propanesulfonamide] as the compound, how does the EC50 read?
Answer: The EC50 was 1.4 nM.
